From paper PMC12395807, “Chemoreceptor family in plant-associated bacteria responds preferentially to the plant signal molecule glycerol 3-phosphate” (Genome Biology, 2025)

Assays:
[1] = system: P. atrosepticum SCRI1043 pacP mutant (MpacP); test: Quantitative capillary chemotaxis assay, pacP mutant; format: cell-based, Pectobacterium atrosepticum; settings: 1 mM ligand
Description: A mutant defective in ECA_RS12390 was constructed by homologous recombination using a derivative plasmid of the suicide vector pKNG101. Briefly, a 0.5-kb fragment corresponding to the region encoding the LBD of ECA_RS12390 was amplified by the primers specified in Additional file 2: Table S2 and cloned into pGEM®-T. The resulting plasmid pGEM::ECA_RS12390 was digested with XmaI, and the 0.5-kb insert was cloned into the same site at pKNG101 to generate pKNG101::ECA_RS12390. This plasmid was subsequently transformed into P. atrosepticum SRCI1043 via biparental conjugation using E. coli β2163. All the plasmids were verified by PCR and sequencing. The pETb(+) derivatives encoding the LBD of the different receptors analyzed in this study (Table 1) were purchased from GeneScript. Plasmid pBBR-ECA_RS12390 was constructed by amplifying the pacP gene using the primers detailed in Additional file 2: Table S2 and cloning of the PCR product into the NdeI/BamHI sites of pBBR1MCS2_START. The sequences of the proteins analyzed in this study are provided in Additional file 2: Table S3. The ECA_RS12390 nucleotide sequence is available in the published genome of P. atrosepticum SCRI1043 [60].
(§1) Overnight cultures of P. atrosepticum SCRI1043 were grown at 30 °C in minimal medium. At an OD660 of 0.4–0.45, the cultures were washed twice with chemotaxis buffer (50 mM K2HPO4/KH2PO4, 20 μM EDTA, 0.05% (v/v) glycerol, pH 7.0) and diluted to an OD660 of 0.1 in the same buffer. Subsequently, 230 μL of the resulting bacterial suspension was placed into the wells of 96-well plates. One-microliter capillary tubes (P1424, Microcaps; Drummond Scientific) were heat-sealed at one end and filled with either chemotaxis buffer (negative control) or chemotaxis buffer containing PacP ligands at a concentration of 1 mM. The capillaries were immersed in the bacterial suspensions at their open ends. After 30 min at room temperature, the capillaries were removed from the bacterial suspensions, rinsed with sterile water, and the contents were expelled into 1 mL of 40 mM K2HPO4, 15 mM KH2PO4. Serial dilutions were plated onto minimal medium supplemented with 15 mM glucose as the carbon source. The number of colony-forming units was determined after 36 h of incubation at 30 °C. In all the cases, the data were corrected with the number of cells that swam into the buffer-containing capillaries.

[2] = system: Pectobacterium atrosepticum SCRI1043; test: Growth experiment, sole carbon source; format: cell-based; settings: PFM9 minimal medium, 5 mM ligand, 30 °C, 48 h
Description: (§2) P. atrosepticum SCRI1043 was cultured overnight in phosphate-free M9-based medium (PFM9) supplemented with 20 mM glucose as the carbon source and 500 µM inorganic phosphate as the phosphate source. Cultures were washed and then diluted to an OD600 of 0.02 in PFM9 supplemented with different PacP ligands as the sole carbon or phosphorous source at a final concentration of 5 mM. Subsequently, 200 µL aliquots of these cultures were transferred into microwell plates, which were subsequently grown at 30 °C on a Bioscreen microbiological growth analyzer (Oy Growth Curves Ab Ltd., Helsinki, Finland) for 48 h.

[3] = system: PacP-LBD mutant (Y86, H100, R105, Y121, K148 and Y167 replaced by alanine); test: ITC binding to PacP-LBD binding site motif mutant; set-up: species or system Pectobacterium atrosepticum; settings: 36 μM PacP-LBD alanine mutant; 1 mM glycerol 3-phosphate, 2.5 mM glyceraldehyde 3-phosphate
Description: Plasmids for the overexpression of the different proteins were transformed into E. coli BL21(DE3). The resulting strains were grown under continuous stirring (200 rpm) at 30 °C in 2-L Erlenmeyer flasks containing 500 mL of LB medium supplemented with 50 μg/mL kanamycin. At an OD660 of 0.5, protein expression was induced by the addition of 0.1 mM isopropyl β-D-1-thiogalactopyranoside. Growth was continued at 16 °C overnight prior to cell harvesting by centrifugation at 10,000 × g for 20 min. Cell pellets were resuspended in buffer A (Additional file 2: Table S4) and subsequently broken by French press treatment at 62.5 lb/in^2. After centrifugation at 20,000 × g for 30 min, the supernatants were loaded onto 5-mL HisTrap HP columns (Amersham Biosciences) equilibrated with buffer A, and the proteins were eluted with a linear gradient of buffer B (Additional file 2: Table S4). All proteins contain a hexa-histidine tag at the N-terminal extension (Additional file 2: Table S3) and were purified at 4 °C. […]
All experiments were conducted on a VP microcalorimeter (Microcal, MA) at 15 °C for PacP-LBD and at 20 °C for the remaining proteins. […] The mean enthalpies measured from the injection of the ligands into the analysis buffer were subtracted from the raw titration data prior to data analysis with the MicroCal version of ORIGIN. […]

P. atrosepticum SCRI1043 = test: Quantitative capillary chemotaxis assay, wild type; format: cell-based, Pectobacterium atrosepticum; settings: wild type SCRI1043, 1 mM ligand, 30 min
Description: as §1

[4] = target: LBD of chemoreceptor R9 (WP_189529961.1) (Paludibacterium paludis, UniProt A0A918NWY2); test: ITC binding to R9-LBD; settings: 20 °C, Nb = no binding
Description: (§3) Plasmids for the overexpression of the different proteins were transformed into E. coli BL21(DE3). The resulting strains were grown under continuous stirring (200 rpm) at 30 °C in 2-L Erlenmeyer flasks containing 500 mL of LB medium supplemented with 50 μg/mL kanamycin. At an OD660 of 0.5, protein expression was induced by the addition of 0.1 mM isopropyl β-D-1-thiogalactopyranoside. Growth was continued at 16 °C overnight prior to cell harvesting by centrifugation at 10,000 × g for 20 min. Cell pellets were resuspended in buffer A (Additional file 2: Table S4) and subsequently broken by French press treatment at 62.5 lb/in^2. After centrifugation at 20,000 × g for 30 min, the supernatants were loaded onto 5-mL HisTrap HP columns (Amersham Biosciences) equilibrated with buffer A, and the proteins were eluted with a linear gradient of buffer B (Additional file 2: Table S4). All proteins contain a hexa-histidine tag at the N-terminal extension (Additional file 2: Table S3) and were purified at 4 °C. The purified proteins were dialyzed overnight into the corresponding analysis buffers (Additional file 2: Table S4) for immediate analysis.
(§4) All experiments were conducted on a VP microcalorimeter (Microcal, MA) at 15 °C for PacP-LBD and at 20 °C for the remaining proteins. Proteins were dialyzed into the analysis buffers specified in Additional file 2: Table S4, placed into the sample cell and titrated with aliquots of ligand solutions (1 to 10 mM) freshly prepared in dialysis buffer. The mean enthalpies measured from the injection of the ligands into the analysis buffer were subtracted from the raw titration data prior to data analysis with the MicroCal version of ORIGIN. The data were fitted with the “One binding site model” of ORIGIN.

[5] = target: LBD of chemoreceptor R6 (WP_174062248.1); test: ITC binding to R6-LBD; set-up: species or system Agrobacterium larrymoorei; settings: 20 °C, Nb = no binding
Description: as §3, §4

[6] = target: LBD of chemoreceptor R10 (WP_028866120.1); test: ITC binding to R10-LBD; set-up: species or system Psychromonas aquimarina; settings: 20 °C, Nb = no binding
Description: as §3, §4

[7] = target: LBD of chemoreceptor R4 (WP_158281851.1) (Rivihabitans pingtungensis, UniProt A0A318KJN4); test: ITC binding to R4-LBD; set-up: species or system Rivicola pingtungensis; settings: 20 °C, Nb = no binding
Description: as §3, §4

[8] = target: LBD of chemoreceptor R3 (WP_006464688.1) (Herbaspirillum frisingense, UniProt A0ABU1PC34); test: ITC binding to R3-LBD; settings: 20 °C, Nb = no binding
Description: as §3, §4

[9] = target: LBD of chemoreceptor R5 (WP_028444678.1); test: ITC binding to R5-LBD; set-up: species or system Chitinimonas koreensis; settings: 20 °C, Nb = no binding
Description: as §3, §4

[10] = system: Pectobacterium atrosepticum SCRI1043; test: Growth experiment, sole phosphorus source; format: cell-based; settings: PFM9 minimal medium, 5 mM ligand, 30 °C, 48 h
Description: as §2

[11] = target: ligand binding domain of the chemoreceptor ECA_RS12390 (PacP-LBD, R1, WP_011094075.1) (Pectobacterium atrosepticum, UniProt Q6D464); test: ITC binding to PacP-LBD; settings: 15 °C, Nb = no binding
Description: as §3, §4

ITC binding to R7-LBD = test: ITC binding to R7-LBD; set-up: species or system Methyloversatilis discipulorum; settings: 20 °C, Nb = no binding
Description: as §3, §4

Sequence of LBD of chemoreceptor R4 (WP_158281851.1) (A0A318KJN4 entry or part of it): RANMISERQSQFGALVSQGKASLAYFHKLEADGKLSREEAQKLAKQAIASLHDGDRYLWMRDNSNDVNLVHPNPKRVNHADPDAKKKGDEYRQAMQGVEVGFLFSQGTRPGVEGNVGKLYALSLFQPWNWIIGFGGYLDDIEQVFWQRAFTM
Sequence of LBD of chemoreceptor R3 (WP_006464688.1) (A0ABU1PC34 entry or part of it): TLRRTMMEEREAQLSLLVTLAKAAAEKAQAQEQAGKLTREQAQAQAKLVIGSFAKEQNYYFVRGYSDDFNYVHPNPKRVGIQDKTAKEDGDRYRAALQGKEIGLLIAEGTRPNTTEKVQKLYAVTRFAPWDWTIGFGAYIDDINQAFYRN
Sequence of ligand binding domain of the chemoreceptor ECA_RS12390 (PacP-LBD, R1, WP_011094075.1) (Q6D464 entry or part of it): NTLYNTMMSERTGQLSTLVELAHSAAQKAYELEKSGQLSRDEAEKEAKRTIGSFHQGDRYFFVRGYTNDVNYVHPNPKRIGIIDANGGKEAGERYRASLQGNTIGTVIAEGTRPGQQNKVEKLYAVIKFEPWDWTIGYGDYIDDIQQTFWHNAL
Sequence of LBD of chemoreceptor R9 (WP_189529961.1) (A0A918NWY2 entry or part of it): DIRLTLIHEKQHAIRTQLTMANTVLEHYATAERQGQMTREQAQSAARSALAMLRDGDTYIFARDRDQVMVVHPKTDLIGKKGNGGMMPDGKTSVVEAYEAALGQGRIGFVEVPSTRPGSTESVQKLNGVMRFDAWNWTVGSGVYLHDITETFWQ

For `O=CC(O)COP(=O)(O)O` (stereo not shown) [glyceraldehyde 3-phosphate], the “chemotaxis (capillary assay)” value [1] was “Only glycerol 2-phosphate served as an attractant for the mutant”, the “growth as sole carbon source” value [2] was “devoid of apparent metabolic value” and the “binding in microcalorimetric titration” value [3] was “absence of binding”. For the same compound, the “chemotaxis (capillary assay)” value (P. atrosepticum SCRI1043) was “Modest chemoattraction”, the KD [4] was “Nb” and the KD [5] was “Nb”. The KD [6] was “Nb”, the Kd [7] was 100 ± 2 µM and the KD [8] was “Nb”. For the same compound, the KD [9] was “Nb”, the “growth as sole phosphorus source” value [10] was “devoid of apparent metabolic value” and the Kd [11] was 58 ± 2 µM. It also gave a Kd (ITC binding to R7-LBD) of 126 ± 9 µM.
